Literature values in patent publication US20080255132A1, “Combination Therapy Comprising the Use of Et-743 and Paclitaxel for Treating Cancer” (priority 2003, published 2008).

Assays:
[1] = system: sarcoma and breast and ovarian carcinoma; details: phase I, 1-, 3-, 24-, 72-hour i.v. infusion and 1 hour daily x5 schedules
[2] = system: human tumor xenografts, including melanoma and ovarian and breast carcinoma; details: human tumor xenografts grown in athymic mice

Question: With `COc1cc2c(cc1O)CCN[C@]21CS[C@@H]2c3c(OC(C)=O)c(C)c4c(c3[C@H](COC1=O)N1[C@@H]2[C@H]2c3c(cc(C)c(OC)c3O)C[C@@H]([C@@H]1O)N2C)OCO4` [ET-743, ecteinascidin 743] as the compound, how does the Responses [1] read?
Answer: Its Responses is “Promising responses”.

Question: What about the Antineoplastic activity [2] of the same compound?
Answer: The Antineoplastic activity was “potent antineoplastic activity”.
